Assay results reported in patent publication US10472341B2, “Bicyclic tetrahydrothiazepine derivatives useful for the treatment of neoplastic and/or infectious diseases” (APEIRON BIOLOGICS AG, priority 2015, dated 2019).
Counter-ions that a name gives are not always drawn.

Tests used:
[1] = system: TCR-mediated activation of CD4 and CD8 cells; experiment: Anti-CD3 PD model in mice: CD69 on splenic T-cells, plasma cytokines; format: in vivo, mouse; conditions: for CD4+ / CD8+ / CD69+ / CD69+ in CD4+ / CD69+ in CD8+: spleen flowcytometry; for CD4+ / CD8+ / CD69+ / CD69+ in CD4+ / CD69+ in CD8+ / IFN-γ / IL-2 / IL-6 / IL-10 / TNF-α: t=4.0 h; for IFN-γ / IL-2 / IL-6 / IL-10 / TNF-α: terminal plasma
Text: Detection of antigen-specific T cell activation and proliferation in vivo is technically challenging since it requires the development and validation of research reagents to detect low-frequency T cells specific for a cognate antigen and also the establishment of specific measurement procedure for following cellular activation and/or proliferation in blood or secondary lymphoid organs. As a surrogate model for the determination of polyclonal T-cell activation in mice, a pharmacological system was designed and employed where adult […] mice were injected with anti-CD3 antibody to elicit TCR triggering and responses of a broad population of peripheral T-cells. To quantitatively determine T-cell responses, systemic IL-2, TNF-alpha and IFN-gamma levels were measured in blood serum as well as the expression of the early activation marker CD69 on splenic CD4 or CD8 T-cells […] after treatment.
It was investigated whether the oral application of compound affected the low-level of activation of a major subset of splenic T-cells by injection of anti-CD3 antibody as exemplified by increased serum levels of IL-2, IFN-gamma and TNF-alpha vis-à-vis untreated mice as well as an increase of CD69-expressing splenic T-cells from 2-10% to 15-20%.
[…] Compound example 1 was dosed twice orally as suspension (0.5% methylcellulose in water) at t=−1.0 h and t=1.0 h. • 3. Mice were terminated at t=4.0 h and their spleens and plasma harvested for flow cytometry and cytokine analysis respectively. • 4. Cytokine concentrations in terminal plasma samples were determined with MSD kits according to manufacturer's instructions.

[2] = system: OT-I T cells; experiment: OT-I transfer to mice with B16-F10-OVA tumors: tumor antigen-specific T cell proliferation; format: in vivo, mouse; conditions: B16-F10-OVA tumor bearing mice; for OT-I T cell proliferation: 10 mg/kg orally; for Proliferation [% proliferated OT-I T cells]: 10 mg/kg dosed orally
Method: • Single cell suspension of splenocytes was prepared from the spleen by rinsing cells through a sterile 70 μm filter with PBS • Cells were collected by centrifugation in an 15 ml tube, the cell pellet was resuspended in 1 ml of Erylyse buffer and incubated at room temperature for 5 minutes, tubes were filled up with PBS and cells were washed twice • Cells were counted and resuspended in the desired buffer volume for MACS-enrichment or flow cytometric analysis Isolation of CD4 T Cells from OT-II Transgenic Mice • Splenocytes were resuspended in MACS buffer ([…] MACS-buffer/10^7 cells) • CD4 T cells were isolated using the CD4 T cell isolation kit (Miltenyi) with LS-columns following manufacturer's recommendations CFSE-Labeling of T Cells • Cells were resuspended in PBS with 0.1% BSA at 1×10^7 cells/ml and CFSE-solution was added to final concentration of 2.5 μM CFSE • Incubated for 10 min at 37° C., swung each 2 min • Same volume of FCS added and incubated for 5 min at room temperature • Cells were washed twice with RMPI-10% FCS medium • Cells were counted and resuspended in PBS or medium at desired concentration OT-II Transfer • Day 0: OT-II cells were transferred in PBS (3*10^6. Cells in 100 μl PBS) by retro-orbital injection • Day 1: WT mice got OVA vaccinated (subcut. flank, 10 μg LPS, 2 μg OVA per animal) • 2 & 4 h later compounds were administrated; for oral dosing compound was used as suspension (0.5% methylcellulose in water), for i.v. dosing compound was solubilized in DMSO and diluted with PBS • Day 2: compounds were administrated twice in the morning (with 2 h time interval) • Day 3: Mice were sacrificed & splenocytes were isolated • T cell proliferation & phenotype was determined by flow cytometry • Flow cytometry-Staining (all Abs purchased from eBioscience and used as recommended by the manufacturer): B220-eF450, CD4-PE, CD25PerCPCy5.5, CD69-PC7, TCRVa2-APC, CD8-AF700, CD3-eF780; CFSE; 7-AAD • Acquisition on Beckman-Coulter Gallios, Analysis using Kaluza Software OT-I Transfer to Mice with B16-F10-OVA Tumors • Day 0: 100000 B16-F10-OVA tumor cells were inoculated subcutaneously at the flank of WT-mice • Day 7: OT-I cells were transferred in PBS (3*10^6. […]

## N[C@H]1CS(=O)(=O)c2cc(F)c(C(=O)NC3CC3(F)F)cc2N(Cc2ccc(Cl)cc2)C1=O (stereo partly drawn) [Example 1, (3R)-3-amino-5-[(4-chlorophenyl)methyl]-N-(2,2-difluorocyclopropyl)-8-fluoro-1,1,4-trioxo-2,3,4,5-tetrahydro-1λ^6,5-benzothiazepine-7-carboxamide hydrochloride]
[1]; mice, anti-CD3 i.p., compound oral, five hours
  TCR-mediated activation of CD4 and CD8 cells in vivo: is able to substantially enhance TCR-mediated activation of CD4 and CD8 cells in vivo
[1]; 25 mg/kg dosed twice orally
  CD4+: 22.95%
  CD8+: 16.33%
  CD69+: 12.65%
  CD69+ in CD4+: 26.75%
  CD69+ in CD8+: 32.40%
  IFN-γ: 5.26 pg/mL
  IL-2: 391.33 pg/mL
  IL-6: 461.65 pg/mL
  IL-10: 39.88 pg/mL
  TNF-α: 46.78 pg/mL
[1]; 50 mg/kg dosed twice orally
  CD4+: 22.86%
  CD8+: 16.42%
  CD69+: 17.06%
  CD69+ in CD4+: 32.14%
  CD69+ in CD8+: 46.44%
  IFN-γ: 12.99 pg/mL
  IL-2: 849.50 pg/mL
  IL-6: 1186.80 pg/mL
  IL-10: 50.88 pg/mL
  TNF-α: 97.78 pg/mL
[1]; 100 mg/kg dosed twice orally
  CD4+: 23.18%
  CD8+: 16.70%
  CD69+: 28.58%
  CD69+ in CD4+: 47.50%
  CD69+ in CD8+: 63.96%
  IFN-γ: 50.77 pg/mL
  IL-2: 1413.82 pg/mL
  IL-6: 2185.05 pg/mL
  IL-10: 68.38 pg/mL
  TNF-α: 170.92 pg/mL
[2]; spleen
  OT-I T cell proliferation: significantly (p=0.006) increased
[2]; tumor-draining lymphnodes
  OT-I T cell proliferation: highly significantly (p=0.0002) enhanced
[2]; Lymph node
  Proliferation [% proliferated OT-I T cells]: 12.28%
[2]; Spleen
  Proliferation [% proliferated OT-I T cells]: 8.62%
